Data on 38 molecules can be found in US8802664B2 (Bioproject, priority 2010, dated 2014).

Molecules are shown by their SMILES.

For this test, the target named is T1, human H4 receptor (Homo sapiens, UniProt Q9H3N8).
T1 construct: expressed in transfected cells
T1 sequence (Q9H3N8 whole entry): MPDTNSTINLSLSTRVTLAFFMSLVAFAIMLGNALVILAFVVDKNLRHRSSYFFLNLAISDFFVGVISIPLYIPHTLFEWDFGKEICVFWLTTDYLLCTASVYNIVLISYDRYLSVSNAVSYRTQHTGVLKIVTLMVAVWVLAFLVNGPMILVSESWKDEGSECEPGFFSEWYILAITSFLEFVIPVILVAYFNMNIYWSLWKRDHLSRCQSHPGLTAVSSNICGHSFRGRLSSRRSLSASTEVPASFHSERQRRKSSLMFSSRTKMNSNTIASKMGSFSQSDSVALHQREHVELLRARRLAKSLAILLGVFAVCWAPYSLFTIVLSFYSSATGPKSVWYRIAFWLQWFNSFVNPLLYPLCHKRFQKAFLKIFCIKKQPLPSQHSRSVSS
The experiment in a line: [3H]Histamine binding on membranes of CHO cells stably expressing human H4 receptor. How it is done: CHO cells stably expressing human H4 receptor were grown until sub-confluence and centrifuged at 300 g 15 minutes at 4° C. Pellets were resuspended in buffer I Tris-HCl 50 mM, MgCl2 10 mM, NaCl 140 mM, pH=7.4 supplemented by a 1/50 dilution of a mix of protease inhibitors. The obtained suspension is stirred gently and submitted to a […] exerted through a syringe. The cell lysate is then centrifuged at 300 g 15 minutes at 4° C. in order to eliminate nucleus and cell scraps. The obtained supernatant was then centrifuged at 48000 g for 30 minutes at 4° C. The final pellet is resuspended in buffer I with a potter homogenizer. Aliquots were frozen in liquid nitrogen and stored until use at −80° C. Protein content is measured by the Bradford method.
Defreezed membranes were diluted at a final concentration of 20 μg/180 μL/well in a binding buffer containing 50 mM Tris/HCl, 0.5 mM EDTA, pH=7.4 and distributed in 96 well polystyrene microplate. [^3H] […] Non specific binding was estimated in the presence of 10 μM BP1.2404 (JNJ 7777120). The reaction was terminated by filtration through GF/B filters pre-soaked 2 hours at 4° C. in […]. Filters were rinsed 3 times with 250 μl of ice cold incubation binding buffer.
The filter-bound radioactivity was measured in a liquid scintillation counter Microbeta TRILUX® with 50 μl of scintillation fluid.
The hH4 binding investigated by use of [^3H]
`CN1CCC(OC(c2cccc(OC3CC4CNCC4C3)c2)c2nc3ccccc3s2)CC1` (centres unmarked) [Example 466] registered a Ki or IC50 activity class of less than 30 nM.

The molecule `CN1CCC(OC(c2cccc(OC3CCC(N)C3)c2)c2nc3ccccc3s2)CC1` (centres unmarked) [Example 453] came in with a Ki or IC50 activity class of less than 30 nM.

`CN1CCC(NC(c2cccc(F)c2)c2nc3ccccc3[nH]2)CC1` (centres unmarked) [Example 74, [(1H-benzimidazol-2-yl)(3-fluorophenyl)methyl](1-methylpiperidin-4-yl)amine] displayed a Ki or IC50 activity class of less than 300 nM.

`CN1CCC(OC(c2cccc(N3CCOCC3)c2)c2nc3ccccc3s2)CC1` (centres unmarked) [Example 243, 2-[(1-methylpiperidin-4-yloxy)(3-morpholin-4-yl-phenyl)methyl]benzothiazole] yielded a Ki or IC50 activity class of less than 300 nM.

As for `CN1CCC(OC(c2cccc(OCCCCCN3CCN(C(=O)OC(C)(C)C)CC3)c2)c2nc3ccccc3[nH]2)CC1` (centres unmarked) [Example 391, 4-(5-{3-[(1H-benzimidazol-2-yl)(1-methylpiperidin-4-yloxy)methyl]phenoxy}pentyl)piperazine-1-carboxylic acid tert-butyl ester], the Ki or IC50 activity class is less than 1000 nM.

As for `CN1CCC(OC(c2cccc(SCC3(CCO)CC3)c2)c2nc3ccccc3s2)CC1` (centres unmarked) [Example 268, 2-(1-{3-[benzothiazol-2-yl(1-methylpiperidin-4-yloxy)methyl]phenylsulfanylmethyl}cyclopropyl)ethanol], the Ki or IC50 activity class is less than 300 nM.

Molecule `CN1CCC(OC(c2nc3ccccc3s2)c2cc(OC(F)(F)F)ccc2F)CC1` (centres unmarked) [Example 526] returned a Ki or IC50 activity class of less than 30 nM.

Turning to `CN1CCC(OC(c2cccc(SCCn3ccnn3)c2)c2nc3ccccc3s2)CC1` (centres unmarked) [Example 241, 2-{(1-methylpiperidin-4-yloxy)[3-(2-[1,2,3]triazol-1-yl-ethylsulfanyl)phenyl]methyl}benzothiazole], the Ki or IC50 activity class is less than 300 nM.

The molecule `CN1CCC(OC(c2cccc(N3CCC(=O)C3)c2)c2nc3ccccc3s2)CC1` (centres unmarked) [Example 443, 1-{3-[benzothiazol-2-yl(1-methylpiperidin-4-yloxy)methyl]phenyl}pyrrolidin-3-one] gave a Ki or IC50 activity class of less than 30 nM.

`CN1CCC(OC(c2cccc(SCc3ccco3)c2)c2nc3ccccc3[nH]2)CC1` (centres unmarked) [Example 173, 2-[[3-(furan-2-ylmethylsulfanyl)phenyl](1-methylpiperidin-4-yloxy)methyl]-1H-benzimidazole] gave a Ki or IC50 activity class of less than 300 nM.

`CN1CCC(OC(c2nc3ccccc3[nH]2)c2ccccc2O)CC1` (single isomer, unassigned) [Example 627, 2-[(1H-benzimidazol-2-yl)(1-methylpiperidin-4-yloxy)methyl]phenol] displayed a Ki or IC50 activity class of less than 30 nM.

Take `CN1CCC(OC(c2ccc3c(c2)CCO3)c2nc3ccccc3s2)CC1` (centres unmarked) [Example 32, 2-[(2,3-dihydrobenzofuran-5-yl)(1-methylpiperidin-4-yloxy)methyl]benzothiazole]: the Ki or IC50 activity class is less than 300 nM.

`CN1CCC(OC(c2nc3ccccc3[nH]2)c2cc(I)ccc2F)CC1` (centres unmarked) [Example 425, 2-[(2-fluoro-5-iodo-phenyl)(1-methylpiperidin-4-yloxy)methyl]-1H-benzimidazole] gave a Ki or IC50 activity class of less than 30 nM.

Consider `CN1CCC(OC(c2cccc(OCCNCC(=O)OC(C)(C)C)c2)c2nc3ccccc3[nH]2)CC1` (centres unmarked) [Example 361, (2-{3-[(1H-benzimidazol-2-yl)(1-methylpiperidin-4-yloxy)methyl]phenoxy}ethylamino)acetic acid tert-butyl ester], for which the Ki or IC50 activity class is less than 1000 nM.

Regarding `CN1CCC(OC(c2cccc(SCCCF)c2)c2nc3ccccc3[nH]2)CC1` (centres unmarked) [Example 508], the Ki or IC50 activity class is less than 30 nM.

Consider `CN1CCC(OC(c2cccc(C#CCCCO)c2)c2nc3ccccc3s2)CC1` (centres unmarked) [Example 237, 5-{3-[benzothiazol-2-yl(1-methylpiperidin-4-yloxy)methyl]phenyl}pent-4-yn-1-ol], for which the Ki or IC50 activity class was less than 300 nM.

On to `CN1CCC(OC(c2cccc(C#CCO)c2)c2nc3ccccc3s2)CC1` (centres unmarked) [Example 227, 3-{3-[benzothiazol-2-yl(1-methylpiperidin-4-yloxy)methyl]phenyl}prop-2-yn-1-ol], for which the Ki or IC50 activity class is less than 30 nM.

In turn, `CN1CCC(OC(c2ccsc2)c2nc3ccccc3s2)CC1` (centres unmarked) [Example 16, 2-[(1-methylpiperidin-4-yloxy)thiophen-3-ylmethyl]benzothiazole] came in with a Ki or IC50 activity class of less than 30 nM.

In turn, `COc1ccc(F)c(C(OC2CCN(C)CC2)c2nc3ccccc3[nH]2)c1` (centres unmarked) [Example 486] had a Ki or IC50 activity class of less than 30 nM.

The molecule `CCSc1ccc(F)c(C(OC2CCN(C)CC2)c2nc3ccccc3[nH]2)c1` (centres unmarked) [Example 514] gave a Ki or IC50 activity class of less than 30 nM.

As to `Cc1ccc(F)c(C(OC2CCN(C)CC2)c2nc3ccccc3[nH]2)c1` (centres unmarked) [Example 490], the Ki or IC50 activity class was less than 300 nM.

Take `CN1CCC(OC(c2cccc(OCCF)c2)c2nc3ccccc3s2)CC1` (centres unmarked) [Example 163, 2-[[3-(2-fluoroethoxy)phenyl](1-methylpiperidin-4-yloxy)methyl]benzothiazole]: the Ki or IC50 activity class is less than 30 nM.

As to `CN1CCC(OC(c2cccc(SCCCCCN)c2)c2nc3ccccc3s2)CC1` (centres unmarked) [Example 305, 5-{3-[benzothiazol-2-yl(1-methylpiperidin-4-yloxy)methyl]phenylsulfanyl}pentylamine], the Ki or IC50 activity class is less than 30 nM.

In turn, `CCSc1cccc(C(OC2CCN(C)CC2)c2nc3ccccc3[nH]2)c1` (centres unmarked) [Example 153, 2-[(3-ethylsulfanylphenyl)(1-methylpiperidin-4-yloxy)methyl]-1H-benzimidazole] yielded a Ki or IC50 activity class of less than 30 nM.

Turning to `CN1CCC(OC(c2cccc(I)c2)c2nc3ccccc3s2)CC1` (single isomer, unassigned) [Example 117, 2-[(3-iodophenyl)(1-methylpiperidin-4-yloxy)methyl]benzothiazole], the Ki or IC50 activity class was less than 30 nM.

Regarding `CN1CCC(OC(c2cccc(C#CCNC(=N)N)c2)c2nc3ccccc3s2)CC1` (centres unmarked) [Example 373, N-(3-{3-[benzothiazol-2-yl(1-methylpiperidin-4-yloxy)methyl]phenyl}prop-2-ynyl)guanidine], the Ki or IC50 activity class is less than 30 nM.

Molecule `CN1CCC(NC(c2cccc(OCc3cc(F)ccc3F)c2)c2nc3ccccc3[nH]2)CC1` (centres unmarked) [Example 149, {(1H-benzimidazol-2-yl)[3-(2,5-difluoro-benzyloxy)phenyl]methyl}(1-methylpiperidin-4-yl)amine] yielded a Ki or IC50 activity class of less than 30 nM.

In the case of `CN1CCC(OC(c2cccc(C#CCCCn3ccnc3)c2)c2nc3ccccc3[nH]2)CC1` (centres unmarked) [Example 409, 2-[[3-(5-imidazol-1-ylpent-1-ynyl)phenyl](1-methylpiperidin-4-yloxy)methyl]-1H-benzimidazole], the Ki or IC50 activity class was less than 300 nM.

In the case of `CN1CCC(OC(c2cccc(CCCCCN)c2)c2nc3ccccc3s2)CC1` (centres unmarked) [Example 289, 5-{3-[benzothiazol-2-yl(1-methylpiperidin-4-yloxy)methyl]phenyl}pentylamine], the Ki or IC50 activity class is less than 30 nM.

`CCCOc1cccc(C(NC2CCN(C)CC2)c2nc3ccccc3s2)c1` (single isomer, unassigned) [Example 57, [benzothiazol-2-yl(3-propoxyphenyl)methyl](1-methylpiperidin-4-yl)amine] displayed a Ki or IC50 activity class of less than 30 nM.

In turn, `CC(=O)NC(=N)NCCSc1cccc(C(OC2CCN(C)CC2)c2nc3ccccc3[nH]2)c1` (centres unmarked) [Example 401, N-acetyl-N′-(2-{3-[(1H-benzimidazol-2-yl)(1-methylpiperidin-4-yloxy)methyl]phenylsulfanyl}ethyl)guanidine] yielded a Ki or IC50 activity class of less than 300 nM.

Consider `CN1CCC(NC(c2cccc(Br)c2)c2nc3ccccc3[nH]2)CC1` (centres unmarked) [Example 64, [(1H-benzimidazol-2-yl)(3-bromophenyl)methyl](1-methylpiperidin-4-yl)amine], for which the Ki or IC50 activity class is less than 1000 nM.

Take `CN1CCC(OC(c2nc3ccccc3[nH]2)c2cc(C(F)(F)F)ccc2F)CC1` (centres unmarked) [Example 498]: the Ki or IC50 activity class was less than 300 nM.

The molecule `CN1CCC(OC(c2cccc(SCCCCN)c2)c2nc3cc(F)c(F)cc3[nH]2)CC1` (centres unmarked) [Example 495] gave a Ki or IC50 activity class of less than 30 nM.

`CN1CCC(OC(c2cccc(-n3cccn3)c2)c2nc3ccccc3s2)CC1` (centres unmarked) [Example 147, 2-[(1-methylpiperidin-4-yloxy)(3-pyrazol-1-ylphenyl)methyl]benzothiazole]: the Ki or IC50 activity class is less than 300 nM.

Molecule `CN1CCC(NC(c2cccc(Br)c2)c2nc3ccccc3s2)CC1` (centres unmarked) [Example 82, [benzothiazol-2-yl(3-bromophenyl)methyl](1-methylpiperidin-4-yl)amine] registered a Ki or IC50 activity class of less than 300 nM.

On to `CN1CCC(OC(c2cccc(OCC3CCCN(C)C3)c2)c2nc3ccccc3s2)CC1` (centres unmarked) [Example 379, 2-[[3-(1-methylpiperidin-3-ylmethoxy)phenyl](1-methylpiperidin-4-yloxy)methyl]benzothiazole], for which the Ki or IC50 activity class is less than 1000 nM.

Molecule `CN1CCC(OC(c2ccc(OC(F)(F)F)cc2)c2nc3ccccc3s2)CC1` (centres unmarked) [Example 24, 2-[(1-methylpiperidin-4-yloxy)(4-trifluoromethoxyphenyl)methyl]benzothiazole] showed a Ki or IC50 activity class of less than 1000 nM.
